The nature of this data set: gradient 5% acetonitrile 3 min, to 50% in 2 min, to 85% in 15 min, held 3 min, 100 µL/min. The following applies: column: Zorbax Extend-C18 2.1 x 50 mm; eluents: water / acetonitrile, 0.1% formic acid. The procedure, abridged: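 The system's dead and dwell volumes were 40 μL and 900 μL, with a Zorbax Extend-C18 column (2.1 × 50 mm, 1.8 μm) run at 100 μL/min in water and acetonitrile containing 0.1% formic acid each. Pure standards were analyzed in mixtures of ~100 molecules by HPLC–quadrupole time-of-flight mass spectrometry in positive and negative ionization mode. Retention time was assigned from computationally picked, manually inspected adduct peaks.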
For `CC(C)(C)OC(=O)NC1[C@H]2CNC[C@@H]12` (stereo partly specified), the RP-LC retention time stood at 609 s.

`Cc1ccc(-c2nc(C3CC(=O)N(c4ccc(F)c(Cl)c4)C3)no2)c(C)c1` (stereo unspecified) came in with an RP-LC retention time of 1250 s.

In turn, `O=C(c1cccc(F)c1)N1CCN(S(=O)(=O)c2cc3c4c(c2)CCC(=O)N4CCC3)CC1` gave an RP-LC retention time of 784 s.

In turn, `O=C(Cn1c(=O)c2cc(C3CC3)nn2c2ncccc21)NCc1ccc(F)cc1` had an RP-LC retention time of 748 s.

The molecule `CCOC(=O)c1cc(S(=O)(=O)N2CCCC2C(=O)NCc2ccc(C)o2)cn1C` (stereo unspecified) showed an RP-LC retention time of 846 s.

Molecule `O=S(=O)(c1ccc(Br)s1)N1CCc2nc(-c3ccccc3)ncc2C1` yielded an RP-LC retention time of 1160 s.

Molecule `Cc1cc(C)n(Cc2ccc(C(=O)N3CCN(c4ccc(=O)n(-c5ccccc5)n4)CC3)o2)n1` had an RP-LC retention time of 706 s.

Molecule `c1ccc(-c2nc3cc(-c4noc(C5CCOC5)n4)ccc3o2)cc1` (stereo unspecified) yielded an RP-LC retention time of 1100 s.

`O=c1c2cc(-c3cccs3)nn2cnn1Cc1nc(-c2ccc(F)cc2)no1` gave an RP-LC retention time of 1040 s.

As for `CCOC(=O)c1cnc2nc(C)ccc2c1Nc1cccc(Br)c1`, the RP-LC retention time came to 756 s.

Molecule `CCc1nc2cc(-c3noc(Cc4ccc(OC)c(Cl)c4)n3)ccc2o1` yielded an RP-LC retention time of 1120 s.

Consider `CSc1cccc(NC(=O)Cn2c(C)cc(-c3nnc(C)o3)c2C)c1`, for which the RP-LC retention time is 790 s.

For the molecule `CC(C)N1C(=O)c2cccnc2Sc2cc(NC(=O)c3ccc4c(c3)OCO4)ccc21`, the RP-LC retention time was 878 s.

`Cc1nc2c(sc3nc(-c4ccccc4)ccc32)c(=O)n1CC(=O)NCc1ccc(F)cc1` displayed an RP-LC retention time of 994 s.

`CCOC(=O)c1ccccc1NC(=O)Cn1cnc2nc(N3CCC(C(=O)NC)CC3)sc2c1=O` registered an RP-LC retention time of 701 s.

As for `Cc1cccc(-c2nc(Cn3nnc(C(=O)NCc4ccc(C(F)(F)F)cc4)c3C)c(C)o2)c1`, the RP-LC retention time was determined as 1210 s.

Turning to `COc1ccc(CNC(=O)C2CCCN2S(=O)(=O)c2cc3c(cc2C)NC(=O)CO3)cc1` (stereo unspecified), the RP-LC retention time was 728 s.

Take `Cc1ccc2ncn(C3CCN(S(=O)(=O)c4ccccc4C)CC3)c(=O)c2c1`: the RP-LC retention time stood at 929 s.

In turn, `O=C(CSc1nccn1-c1ccc([N+](=O)[O-])cc1)NC1CCCCC1` displayed an RP-LC retention time of 730 s.

The molecule `Cc1ccc(-c2noc(CSc3nc4cc5c(cc4c(=O)n3C3CC3)OCO5)n2)cc1` gave an RP-LC retention time of 874 s.

For the molecule `O=C(CSCc1ccccc1)NCCS(=O)(=O)N1CCN(c2ncccn2)CC1`, the RP-LC retention time amounted to 746 s.

On to `COc1cc(OC)cc(C(=O)N2C[C@@H]3C[C@H]2C[C@@H]3NC(=O)c2ccccc2)c1`, for which the RP-LC retention time worked out at 732 s.

On to `O=C(CCC1CCCN(S(=O)(=O)c2ccccc2F)C1)NCc1cccs1` (stereo unspecified), for which the RP-LC retention time was 908 s.

In turn, `O=C(Cc1ccccc1)NCCSc1c[nH]c2ccccc12` showed an RP-LC retention time of 790 s.

Molecule `CS(=O)(=O)c1ccc(C(=O)Nc2ccc(Cl)c(-c3ccccn3)c2)c(Cl)c1` came in with an RP-LC retention time of 891 s.

As for `Cc1noc(C)c1-c1ccc(S(=O)(=O)N2CCN(c3ccccc3)CC2)cc1`, the RP-LC retention time stood at 1080 s.

`COC(=O)c1cnc2nc(C)ccc2c1Nc1cc(OC)c(OC)c(OC)c1` displayed an RP-LC retention time of 643 s.

`O=c1c2cc(-c3ccc4c(c3)OCO4)nn2ccn1Cc1ccc(F)cc1` returned an RP-LC retention time of 986 s.

In turn, `COc1ccccc1N1CCN(c2cc(SCC(=O)NCc3ccc(SC)cc3)ncn2)CC1` came in with an RP-LC retention time of 929 s.

Turning to `O=C(Cn1cnc2ccccc2c1=O)N1CCOCC1`, the RP-LC retention time was 590 s.

With `Cn1nc(C(=O)Nc2ccc(S(N)(=O)=O)cc2)ccc1=O`, the RP-LC retention time worked out at 582 s.

The values above are taken from the METLIN SMRT retention time set (Domingo-Almenara et al. 2019).
